In patent US20190313680A1, “MODIFYING OR ENHANCING A FLAVOR OF FOOD AND BEVERAGE PRODUCTS” (Tate & Lyle Ingredients Americas LLC, priority 2016, published 2019):

Experiments:
[1] = test system: panellists; test: Determination of the sweet-taste threshold of allulose: two-alternative forced choice test (2-AFC) against 1.5% by weight sucrose solution; type: in vivo
Description: Described herein is a method for determining the sweetness threshold of allulose. The method is a two-alternative forced choice test against threshold levels of sweetness (ASTM Designation E2164-08: Standard Test Method for Directional Difference Test). This test is used to determine the amount of allulose at which its sweetness is less than that of the recognition threshold concentration of sucrose. The recognition threshold concentration of sucrose is 1.5% by weight in accordance with FEMA (Flavor Extracts Manufacturing Association) GRAS™ guidance.
The sweet-taste threshold of allulose was determined in accordance with FEMA (Flavor Extracts Manufacturing Association) guidance. The standard process described in this guidance requires use of a two-alternative forced choice test (2-AFC testing) against threshold levels of sweetness. FEMA guidance states that the standard for this determination is a 1.5% by weight sucrose aqueous solution (i.e. the sucrose is present in an amount of 1.5% by weight relative to the total weight of the solution). AFC tests are to be performed up to the concentration where the proposed substance exceeds the sweetness levels of sucrose at threshold levels. FEMA guidance further recommends that 30 observations be made to assess the difference in sweetness and that the differences must be found to be statistically significant to assess the effect.
The number of panellists used across replicates always exceeded the minimum of 30 observations as recommended by the FEMA sensory testing guidance. As replicates were performed, beta-binomial statistics were required to be consistent with published requirements (BI, Jian. 2006. Sensory Discrimination tests and Measurements. Chapter. 6, p. 106-129, 1st ed. Blackwell Publishing, Ames, Iowa). In such tests, when the beta-binomial term A exceeds zero, the beta-binomial is required. However, if A is zero or negative, then the panel is not over-dispersed and traditional binomial statistics can be used.
Samples were prepared on the morning of testing. Reference solutions were made as a point of comparison for all tests. The reference solutions were simple solutions of 1.5% by weight sucrose (commercial Domino brand sugar) in water. Test solutions were made from Tate & Lyle Dolcia Prima® allulose syrup standardized such that the amount of allulose in the test solutions was 1.925%, 2.310%, 2.695%, 2.8875%, or 3.080% by weight relative to the total weight of the solution.
Replicated pairs of samples at a single test concentration were chosen from those above and served on a given day. Panellists were presented products in coded 2-oz soufflé cups containing approximately 1.5 oz of liquid, and asked which sample was sweeter. Products were served at room temperature. The serving order was randomized based on a complete block design, such that the order of samples was randomized among panellists and between replicates.

[2] = test system: panelists; test: 2-AFC flavor and preference test, cotton candy flavored water (Example 1); type: in vivo; conditions: allulose in an amount below its sweetness threshold in cotton candy flavored beverage
Method: Cotton candy flavor samples in accordance with Table 2 below were prepared by weighing all of the ingredients into a container and blending until fully mixed.
(§1) The N&A Cotton Candy flavor was obtained from Givaudan (product code YX-953-327-3). […] DOLCIA PRIMA® was obtained from Tate & Lyle. The DOLCIA PRIMA® Allulose Syrup comprises allulose in an amount of 71% by weight on a dry solids basis. Accordingly, in the Test Sample, allulose was present at an amount of approximately 1.5% by weight relative to the total weight of the solution. The deionized water was produced by reverse osmosis.
The samples in Table 2 were subjected to 2-AFC testing. As already described herein, an AFC test is an alternative forced choice test. It asks a panelist to identify the sample that is most or least intense in a specified attribute among a given number of samples. A 2-AFC test chooses among 2 samples, a 3-AFC test chooses among 3 samples, etc. The attributes that are specified are generally attributes which panelists are likely to be able to recognize and identify a difference. A 2-AFC for sweetness would present panelists with two samples and ask them of the two which is sweeter. These differ from triangle tests or other types of tests in that an attribute is specified for the panelist to focus on. […]

[3] = test system: panellists; test: 2-AFC flavor and preference test, salted caramel flavored water (Example 2); type: in vivo; conditions: allulose in an amount below its sweetness threshold in salted caramel flavored beverage
Method: Salted caramel flavor samples in accordance with Table 4 below were prepared by weighing all of the ingredients into a container and blending until fully mixed.
as §1, with “Salted Caramel” for “Cotton Candy”, “Flavor & Fragrance Specialities” for “Givaudan”, “YX-226E 032).” for “YX-953-327-3).”
The samples in Table 3 were subjected to 2-AFC testing.
Samples were prepared on the morning of testing. […] Standard ambient fluorescent lighting was used in sensory isolation booths, as is typical in sensory facilities. Products were served blinded and randomized in 2-oz soufflé cups identified with randomized three digit product codes.
The response questionnaires were run using Compusense Cloud. Replicates were not performed for this study. Therefore, simple binomial statistics were applied.

[4] = in accordance with FEMA GRAS guidance; cited from earlier work

| SMILES | Sweetness compared with sucrose solution (in words) ([1]; 2.8875% by weight of allulose vs 1.5% by weight sucrose) | Sweetness relative to sweetness threshold (in words) ([1]; 3.0800% allulose solids) | Count: number of panellists who selected the sucrose solution as sweeter ([1]; allulose 1.9250 weight % in water vs 1.5% by weight sucrose, 50 possible) | Count: number of panellists who selected the sucrose solution as sweeter ([1]; allulose 2.3100 weight % in water vs 1.5% by weight sucrose, 58 possible) | Count: number of panellists who selected the sucrose solution as sweeter ([1]; allulose 2.6950 weight % in water vs 1.5% by weight sucrose, 60 possible) | Count: number of panellists who selected the allulose solution as sweeter ([1]; allulose 2.8875 weight % in water vs 1.5% by weight sucrose, 44 possible) | Count: number of panellists who selected the allulose solution as sweeter ([1]; allulose 3.0800 weight % in water vs 1.5% by weight sucrose, 60 possible) | Amount of allulose in solution considered below its sweetness threshold ([1]; relative to total weight of the solution, vs 1.5% by weight sucrose) [% by weight] | Effect on cotton candy flavor (in words) [2] | Effect on preference for the beverage (in words) [2] | Effect on preference for the beverage (in words) [3] | Effect on salted caramel flavor (in words) [3] | Recognition threshold concentration [4] [% by weight] |
| --- | --- | --- | --- | --- | --- | --- | --- | --- | --- | --- | --- | --- | --- |
| O=C(CO)C(O)C(O)C(O)CO (stereo not shown) [allulose] | considered to be sweeter than the 1.5% by weight sucrose solution | clearly above the sweetness threshold | 45 | 49 | 40 | 26 | 34 | ≤ 2.695 | enhanced the cotton candy flavor | increased the preference for the beverage | increased the preference for the beverage | enhanced the salted caramel flavor | – |
| OC[C@H]1O[C@@](CO)(O[C@H]2O[C@H](CO)[C@@H](O)[C@H](O)[C@H]2O)[C@@H](O)[C@@H]1O [sucrose] | – | – | – | – | – | – | – | – | – | – | – | – | 1.5 |
